Measured values from patent publication US20150105252A1, “SUBSTITUTED PYRAZOLES AS HERBICIDES” (E I DU PONT DE NEMOURS AND COMPANY, priority 2013, published 2015).

Columns and labels:
galium = test: Test C preemergence; type: in vivo, Galium aparine
Text: (§1) Seeds of plant species selected from blackgrass (Alopecurus myosuroides), ryegrass, Italian (Italian ryegrass, Lolium multiflorum), wheat (winter wheat, Triticum aestivum), galium (catchweed bedstraw, Galium aparine), corn (Zea mays), crabgrass, large (large crabgrass, Digitaria sanguinalis), foxtail, giant (giant foxtail, Setaria faberii), johnsongrass (Sorghum halepense), lambsquarters (Chenopodium album), morningglory (Ipomoea coccinea), nutsedge, yellow (yellow nutsedge, Cyperus esculentus), pigweed (redroot pigweed, Amaranthus retroflexus), ragweed (common ragweed, Ambrosia elation), soybean (Glycine max), barnyardgrass (Echinochloa crus-galli), oilseed rape (Brassica napus), waterhemp (common waterhemp, Amaranthus rudis), oat, wild (wild oat, Avena fatua), kochia (Kochia scoparia), Surinam grass (Brachiaria decumbens), foxtail, green (green foxtail, Setaria viridis), goosegrass (Eleusine indica), bromegrass, downy (downy bromegrass, Bromus tectorum), nightshade (eastern black nightshade, Solanum ptycanthum), cocklebur (common cocklebur, Xanthium strumarium), cupgrass, woolly (woolly cupgrass, Eriochloa villosa), bermudagrass (Cynodon dactylon), sunflower, (common oilseed sunflower, Helianthus annuus), Russian thistle (Salsola kali), and velvetleaf (Abutilon theophrasti) were planted into a blend of loam soil and sand and treated preemergence with test chemicals formulated in a non-phytotoxic solvent mixture which included a surfactant.
(§2) At the same time, plants selected from these crop and weed species and also chickweed (common chickweed, Stellaria media), canarygrass (littleseed canarygrass, Phalaris minor), and deadnettle (henbit deadnettle, Lamium amplexicaule), were planted in pots containing Redi-Earth® planting medium (Scotts Company, 14111 Scottslawn Road, Marysville, Ohio 43041) comprising spaghnum peat moss, vermiculite, wetting agent and starter nutrients and treated with postemergence applications of test chemicals formulated in the same manner. Plants ranged in height from 2 to 18 cm (1- to 4-leaf stage) for postemergence treatments. Treated plants and controls were maintained in a greenhouse for 13 to 15 days, after which time all species were compared to controls and visually evaluated. Plant response ratings, summarized in Table C, are based on a scale of 0 to 100 where 0 is no effect and 100 is complete control. A dash (-) response means no test result.

corn [1] = test: Test C preemergence; type: in vivo, Zea mays
Text: as §1, §2

morningglory = test: Test A postemergence; type: in vivo, Ipomoea spp.
Outline: (§3)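 Greenhouse test in loam soil/sand blend; compounds formulated in non-phytotoxic solvent with surfactant, applied as preemergence directed soil spray or postemergence to plants 2–10 cm tall at one- to two-leaf stage. Injury rated visually versus untreated controls after approximately 10 days on a 0 (no effect) to 100 (complete control) scale.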

foxtail, giant = test: Test A postemergence; type: in vivo, Setaria faberii
Outline: as §3

corn [2] = test: Test A postemergence; type: in vivo, Zea mays
Outline: as §3

wheat = test: Test A preemergence; type: in vivo, Triticum aestivum; details: preemergence; for Wheat plant response rating (0 to 100 scale): visual injury approx. 10 days after treatment
Outline: as §3

nutsedge, yellow = test: Test C preemergence; type: in vivo, Cyperus esculentus
Text: as §1, §2

ryegrass, Italian = test: Test C preemergence; type: in vivo, Lolium multiflorum
Text: as §1, §2

crabgrass, large [3] = test: Test A preemergence; type: in vivo, Digitaria sanguinalis; details: preemergence; for Crabgrass, Large plant response rating (0 to 100 scale): visual injury approx. 10 days after treatment
Outline: as §3

crabgrass, large [4] = test: Test A postemergence; type: in vivo, Digitaria sanguinalis
Outline: as §3

waterhemp = test: Test C preemergence; type: in vivo, Amaranthus rudis
Text: as §1, §2

[5] = preemergence, 31 g ai/ha, visual rating, scale 0 to 100 (0 no effect, 100 complete control), 13 to 15 days
[6] = preemergence, 62 g ai/ha, scale 0 to 100 (0 no effect, 100 complete control), 13 to 15 days
[7] = preemergence, 125 g ai/ha, 13 to 15 days, scale 0 to 100, 0 = no effect, 100 = complete control
[8] = preemergence, 250 g ai/ha, scale 0 to 100, 0 is no effect, 100 is complete control
[9] = Postemergence, 500 g ai/ha, 0 to 100 scale (0 no effect, 100 complete control)
[10] = postemergence, 125 g ai/ha, about 10 days, visual rating on 0 to 100 scale (0 no effect, 100 complete control)
[11] = 500 g ai/ha, visual injury after approx. 10 days, 0 to 100 scale (0 no effect, 100 complete control)
[12] = Preemergence, 4 g ai/ha, scale 0 to 100
[13] = Preemergence, 8 g ai/ha, scale 0 to 100
[14] = Preemergence, 16 g ai/ha, scale 0 to 100
[15] = 125 g ai/ha, visual injury, 0 to 100 scale, approx. 10 days

SMILES | Galium plant response rating (galium; [5]) | Galium plant response rating (galium; [6]) | Plant response rating, Galium (galium; [7]) | Corn plant response rating (corn [1]; [5]) | Corn plant response rating (corn [1]; [6]) | Plant response rating, Corn (corn [1]; [7]) | Morningglory plant response rating (morningglory; [9]) | Morningglory plant response rating (morningglory; [10]) | Foxtail, Giant plant response rating (foxtail, giant; [9]) | Foxtail, Giant plant response rating (foxtail, giant; [10]) | Corn plant response rating (corn [2]; [9]) | Corn plant response rating (corn [2]; [10]) | Wheat plant response rating (0 to 100 scale) (wheat; 125 g ai/ha) | Wheat plant response rating (wheat; [11]) | Nutsedge, Yellow plant response rating (nutsedge, yellow; [5]) | Ryegrass, Italian plant response rating (ryegrass, Italian; [5]) | Crabgrass, Large plant response rating (crabgrass, large [3]; [11]) | Crabgrass, Large plant response rating (crabgrass, large [4]; [9]) | Crabgrass, Large plant response rating (crabgrass, large [4]; [10]) | Waterhemp plant response rating (waterhemp; [5]) | also measured
O=C(NC1CC1)c1cc(CCF)n(Cc2ccnc(C(F)(F)F)c2)n1 [Compound 176] | 85 | 85 | 98 | 5 | 5 | 90 | 90 | 90 | 90 | 80 | 80 | 40 | 20 | 90 | 5 | 5 | 100 | 90 | 80 | 100 | Galium plant response rating (galium; [8]): 100; Corn plant response rating (corn [1]; [8]): 90; Nutsedge, Yellow plant response rating (nutsedge, yellow; [6]): 5; Plant response rating, Nutsedge, Yellow (nutsedge, yellow; [7]): 75; Nutsedge, Yellow plant response rating (nutsedge, yellow; [8]): 85; Ryegrass, Italian plant response rating (ryegrass, Italian; [6]): 10; Plant response rating, Ryegrass, Italian (ryegrass, Italian; [7]): 70; Ryegrass, Italian plant response rating (ryegrass, Italian; [8]): 85; Crabgrass, Large plant response rating (0 to 100 scale) (crabgrass, large [3]; 125 g ai/ha): 100; Waterhemp plant response rating (waterhemp; [6]): 100; Plant response rating, Waterhemp (waterhemp; [7]): 100; Waterhemp plant response rating (waterhemp; [8]): 100
O=C(NCC(F)(F)F)c1cc(CCF)n(Cc2ccnc(C(F)(F)F)c2)n1 [Compound 175] | 85 | 100 | 100 | 20 | 30 | 85 | 90 | 80 | 90 | 80 | 90 | 60 | 20 | 100 | 10 | 30 | 100 | 90 | 90 | 100 | Galium plant response rating (galium; [8]): 100; Corn plant response rating (corn [1]; [8]): 90; Nutsedge, Yellow plant response rating (nutsedge, yellow; [6]): 55; Plant response rating, Nutsedge, Yellow (nutsedge, yellow; [7]): 70; Nutsedge, Yellow plant response rating (nutsedge, yellow; [8]): 98; Ryegrass, Italian plant response rating (ryegrass, Italian; [6]): 85; Plant response rating, Ryegrass, Italian (ryegrass, Italian; [7]): 90; Ryegrass, Italian plant response rating (ryegrass, Italian; [8]): 90; Crabgrass, Large plant response rating (0 to 100 scale) (crabgrass, large [3]; 125 g ai/ha): 100; Waterhemp plant response rating (waterhemp; [6]): 100; Plant response rating, Waterhemp (waterhemp; [7]): 100; Waterhemp plant response rating (waterhemp; [8]): 100
CCOc1cc(C(=O)NCC(F)(F)F)nn1Cc1cc(C(F)(F)F)nn1C [Compound 140] | 100 | – | – | 10 | – | – | 90 | 90 | 90 | 80 | 80 | 50 | – | 100 | 15 | 55 | 100 | 90 | 70 | 95 | Plant response rating, Galium (galium; [12]): 50; Plant response rating, Galium (galium; [13]): 60; Plant response rating, Galium (galium; [14]): 98; Plant response rating, Corn (corn [1]; [12]): 0; Plant response rating, Corn (corn [1]; [13]): 0; Plant response rating, Corn (corn [1]; [14]): 0; Wheat plant response rating (wheat; [15]): 70; Plant response rating, Nutsedge, Yellow (nutsedge, yellow; [12]): 0; Plant response rating, Nutsedge, Yellow (nutsedge, yellow; [13]): 15; Plant response rating, Nutsedge, Yellow (nutsedge, yellow; [14]): 0; Plant response rating, Ryegrass, Italian (ryegrass, Italian; [12]): 0; Plant response rating, Ryegrass, Italian (ryegrass, Italian; [13]): 5; Plant response rating, Ryegrass, Italian (ryegrass, Italian; [14]): 10; Crabgrass, Large plant response rating (crabgrass, large [3]; [15]): 100; Plant response rating, Waterhemp (waterhemp; [12]): 70; Plant response rating, Waterhemp (waterhemp; [13]): 70; Plant response rating, Waterhemp (waterhemp; [14]): 85
CCNC(=O)c1cc(CCF)n(Cc2ccnc(C(F)(F)F)c2)n1 [Compound 178] | 90 | 90 | 95 | 5 | 5 | 25 | 100 | 70 | 90 | 70 | 90 | 10 | 0 | 30 | 5 | 5 | 100 | 90 | 80 | 90 | Plant response rating, Galium (galium; [14]): 70; Plant response rating, Corn (corn [1]; [14]): 5; Plant response rating, Nutsedge, Yellow (nutsedge, yellow; [14]): 0; Nutsedge, Yellow plant response rating (nutsedge, yellow; [6]): 15; Plant response rating, Nutsedge, Yellow (nutsedge, yellow; [7]): 35; Plant response rating, Ryegrass, Italian (ryegrass, Italian; [14]): 0; Ryegrass, Italian plant response rating (ryegrass, Italian; [6]): 5; Plant response rating, Ryegrass, Italian (ryegrass, Italian; [7]): 15; Crabgrass, Large plant response rating (0 to 100 scale) (crabgrass, large [3]; 125 g ai/ha): 100; Plant response rating, Waterhemp (waterhemp; [14]): 65; Waterhemp plant response rating (waterhemp; [6]): 100; Plant response rating, Waterhemp (waterhemp; [7]): 100
CCCc1cc(C(=O)NOC(C)C)nn1Cc1cc(C(F)(F)F)nn1C [Compound 203] | 100 | 100 | 100 | 5 | 50 | 75 | 90 | – | 90 | 80 | 100 | 50 | 80 | – | 5 | 5 | 100 | 90 | 70 | 85 | Galium plant response rating (galium; [8]): 100; Corn plant response rating (corn [1]; [8]): 98; Morningglory plant response rating (morningglory; Postemergence, 125 g ai/ha, 0 to 100 scale, 0 no effect, 100 complete control): 50; Nutsedge, Yellow plant response rating (nutsedge, yellow; [6]): 35; Plant response rating, Nutsedge, Yellow (nutsedge, yellow; [7]): 85; Nutsedge, Yellow plant response rating (nutsedge, yellow; [8]): 90; Ryegrass, Italian plant response rating (ryegrass, Italian; [6]): 60; Plant response rating, Ryegrass, Italian (ryegrass, Italian; [7]): 90; Ryegrass, Italian plant response rating (ryegrass, Italian; [8]): 90; Crabgrass, Large plant response rating (0 to 100 scale) (crabgrass, large [3]; 125 g ai/ha): 100; Waterhemp plant response rating (waterhemp; [6]): 95; Plant response rating, Waterhemp (waterhemp; [7]): 100; Waterhemp plant response rating (waterhemp; [8]): 100
